Data taken from patent publication US12264146B2, “Rho kinase inhibitor, method for preparing same and uses thereof” (BEIJING INCREASE INNOVATIVE DRUG CO., LTD., priority 2018, dated 2025).

What was measured:
[1] = test system: endothelin (ET-1); test: Expression of endothelin (ET-1) in EA.Hy926 endothelial cells, detection kit; type: cell-based, human; settings: EA.Hy926 cell supernatant, 48 h
Procedure: (§1) Commercially available cytokine kits were used to detect the effects of the compounds of the present application on vascular endothelium-derived contracting factor endothelin, vascular endothelium-derived relaxing factor endothelial nitric oxide synthase, nitric oxide, and prostacyclin factor. The detection was performed according to the kit instructions. When testing the effect of the compound of the present application on cytokines, a normal control group, a fasudil hydrochloride group, and high-, medium- and low-dose groups of the compounds of the present application were set up for testing. The fasudil hydrochloride used in this test example was purchased from Beijing Sihuan Pharmaceutical Co., Ltd., with the SFDA approval number of H20173349. The EA.Hy926 cells used in this test example were purchased from Suzhou Beina Chuanglian Biotechnology Co., Ltd.
EA.Hy926 cells were taken and inoculated in a 96-well plate at 5×10^4 cells/mL, 100 μL per well, and cultured adherently for 24 hours, then the test compound prepared in DMEM medium was added, and an equal volume of DMEM medium was added in the normal control group, then the cells were cultured at 37° C. for 48 hours, and then the cell supernatant was taken and placed in an EP tube, and centrifuged at 3000 r/min, 4° C. for 15 min. The resulting cell supernatant was transferred to a new EP tube, diluted twice with culture medium, and detected according to the instruction of the human endothelin detection kit (purchased from Wuhan Boster Biological Engineering Co., Ltd., batch number 59113731009), and the detection results were shown in Table 2.

[2] = test system: subarachnoid hemorrhage in rats; test: Rat subarachnoid hemorrhage (SAH) model by intravascular puncture, Sugawara bleeding score; type: in vivo; design: dose or concentration left out as unconfirmed; settings: tail vein injection, 2 administrations 4 h apart, scored 24 h after first administration (Sugawara)
Procedure: Rat subarachnoid hemorrhage (SAH) model was built by intravascular puncture. After being weighed, the rats were anesthetized with sodium pentobarbital (50 mg/kg) or chloral hydrate (300 mg/kg) by intraperitoneal injection, then fixed on their back and maintained the animal's body temperature at about 37° C. The rats' neck skin was shaved for surgery, a median incision was made on the neck, and muscle and fascia were separated along the inner edge of stemocleidomastoid muscle to expose the main and bifurcation of right common carotid artery, and expose the external and internal carotid arteries.
The bifurcation of internal carotid artery was gently clamped with ophthalmic forceps, the bifurcation of the internal carotid artery and the external carotid artery was pierced with a 6-gauge syringe needle, the ophthalmic forceps holding the bifurcation of internal carotid artery was slightly loosen, and No. 3 fishing thread was used to perform a puncture at the bleeding point, the ophthalmic forceps on the internal carotid artery was loosen, and the fishing thread was inserted into skull. […] After staying for 15 seconds, the thread for puncture was completely removed, and the skin was sutured after compression to stop the bleeding. 1.6 million units of penicillin potassium (400,000 units/ml, 0.2 ml/rat) was intramuscularly injected to avoid wound infection. For the sham operation group, the thread for puncture was removed when resistance was felt without piercing the bifurcation of the anterior cerebral artery and the middle cerebral artery, while the remaining operation steps were the same as the model group. After the operation, the rats were transferred to a thermal insulation blanket, then transferred to a squirrel cage when they were basically awake, and kept normally.
In this test experimental, 32 groups were set, i.e., Groups 1 to 32, in which Group 1 was a normal control group (healthy rats), Group 2 was a sham operation control group (not modeling by puncture), Group 3 was a model control group (modeling by puncture, administrated with normal saline), Group 4 was a positive control group (modeling by puncture, administrated with fasudil hydrochloride injection), and Groups 5 to 32 were test groups of the compounds of the present application (modeling by puncture, respectively administrated with the compounds of the present application); and there were 8 animals (purchased from SPF (Beijing) Biotechnology Co., Ltd., the certificate number was SYXK (Beijing) 2016-0002) in each group, half of them were female and half of them were male. The animals were subjected to fasting for 12 to 18 hours without prohibition of drinking water before modeling. […] The rats were euthanized 24 h after the first administration, and the brains were taken. According to Sugawara's method (Reference: Sugawara T, Ayer R, Jadhav V, et al. A new grading system evaluating bleeding scale in filament perforation subarachnoid hemorrhage rat model. J Neurosci Methods. 2008, 167(2):327-34), the subarachnoid hemorrhage amounts were scored, and the scoring results were as follows: […]

[3] = test system: prostacyclin (PGI2); test: Expression of prostacyclin (PGI2) in EA.Hy926 endothelial cells, ELISA kit; type: cell-based; settings: EA.Hy926 cell supernatant, 24 h
Procedure: as §1
EA.Hy926 cells were taken and inoculated in a 96-well plate at 5×10^4 cells/mL, 100 μL per well, and cultured adherently for 24 hours, then the test compound prepared in DMEM medium was added, and an equal volume of DMEM medium was added in the normal control group, then the cells were cultured at 37° C. for 24 hours, and then the cell supernatant was taken and placed in an EP tube, and centrifuged for 15 min at 3000 r/min and 15° C. The resulting supernatant was transferred to a new EP tube, and then the detection was performed according to the instruction of ELISA kit (purchased from Wuhan Elabscience Biotechnology Co., Ltd., Cat. No. E-EL-0022c), and the detection results were shown in Table 3.

[4] = test system: nitric oxide (NO); test: Synthesis and secretion of nitric oxide (NO) in EA.Hy926 endothelial cells, NO detection kit; type: cell-based; settings: EA.Hy926 cell supernatant, 24 h
Procedure: as §1
EA.Hy926 cells were inoculated in a 24-well plate at 5×10^5 cells/mL, 400 μL per well, and cultured adherently for 18 hours, then the supernatant was discarded, the test compound prepared in DMEM medium was added, and an equal volume of DMEM medium was added in the normal control group, then the cells was cultured for 24 h in incubator, and then the cell supernatant was collected and detected according to the instructions of NO detection kit (purchased from Beyotime Institute of Biotechnology, Cat. No. 062617171017), and the detection results were shown in Table 5.

[5] = test system: endothelial nitric oxide synthase (eNOS); test: Endothelial nitric oxide synthase (eNOS) in EA.Hy926 endothelial cells, detection kit; type: cell-based; settings: 24 h; for expression of endothelial nitric oxide synthase in endothelial cells: Detection result of test compound at low dose (0.4 μM) / expression of endothelial nitric oxide synthase in endothelial cells: Detection result of test compound at medium dose (2 μM) / expression of endothelial nitric oxide synthase in endothelial cells: Detection result of test compound at high dose (10 μM): EA.Hy926 cell supernatant
Procedure: as §1
Detection conditions: EA.Hy926 cells were inoculated at 1×10^5 […] in a 96-well plate, 100 μL per well, and cultured adherently for 24 hours, then the test compound prepared with DMEM medium was added, the normal control group was added with an equal volume of DMEM medium, then the cells were cultured for 24 hours at 37° C., and then the cell supernatant was taken and placed in an EP tube, and centrifuged at 3000 r/min and 4° C. for 15 minutes, the resulting supernatant was transferred to a new EP tube, diluted 3 times, and detected according to the instruction of eNOs detection kit (purchased from Wuhan Elabscience Biotechnology Co., Ltd., Cat. No. AK0017OCT12013), and the detection results were shown in Table 4.

SMILES	expression of endothelin in endothelial cells: Detection result of test compound at low dose (0.4 μM) [1] [pg/mL]	expression of endothelin in endothelial cells: Detection result of test compound at medium dose (2 μM) [1] [pg/mL]	expression of endothelin in endothelial cells: Detection result of test compound at high dose (10 μM) [1] [pg/mL]	Cerebral hemorrhage volume score (x ± s) [2]	expression of prostacyclin in endothelial cells: Detection result of test compound at low dose (0.4 μM) [3] [pg/mL]	expression of prostacyclin in endothelial cells: Detection result of test compound at medium dose (2 μM) [3] [pg/mL]	expression of prostacyclin in endothelial cells: Detection result of test compound at high dose (10 μM) [3] [pg/mL]	nitric oxide secretion in endothelial cells: Detection result of test compound at low dose (0.4 μM) [4] [μm]	nitric oxide secretion in endothelial cells: Detection result of test compound at medium dose (2 μM) [4] [μm]	nitric oxide secretion in endothelial cells: Detection result of test compound at high dose (10 μM) [4] [μm]	expression of endothelial nitric oxide synthase in endothelial cells: Detection result of test compound at low dose (0.4 μM) [5] [pg/mL]	expression of endothelial nitric oxide synthase in endothelial cells: Detection result of test compound at medium dose (2 μM) [5] [pg/mL]	expression of endothelial nitric oxide synthase in endothelial cells: Detection result of test compound at high dose (10 μM) [5] [pg/mL]	effect on the expression of nitric oxide synthase (in words) ([5]; high dose)
C[C@@H]1CNCCCN1S(=O)(=O)c1cccc2c(O)ncc(C3CC3)c12 [Compound R-YK1600-1, (R)-4-cyclopropyl-5-((2-methyl-1,4-diazacycloheptan-1-yl)sulfonyl)isoquinolin-1-ol]	228.20 ± 2.28	229.34 ± 7.96	227.68 ± 3.34	13.37 ± 2.56	243.20 ± 2.28	242.34 ± 7.96	247.68 ± 3.34	1.012 ± 0.053	1.099 ± 0.201	1.148 ± 0.251	2528.44 ± 267.48	2485.91 ± 287.57	2345.81 ± 213.65	–
COc1ncc(C2CC2)c2c(S(=O)(=O)N3CCCNC[C@H]3C)cccc12 [Compound R-YK1600-2, (R)-4-cyclopropyl-1-methoxy-5-((2-methyl-1,4-diazacycloheptan-1-yl)sulfonyl)isoquinoline]	223.55 ± 0.12	225.98 ± 11.41	229.23 ± 0.75	13.59 ± 2.67	241.55 ± 0.12	245.98 ± 11.41	249.23 ± 0.75	0.982 ± 0.096	1.037 ± 0.062	1.139 ± 0.263	2428.32 ± 287.58	2384.92 ± 317.27	2245.86 ± 224.65	–
C[C@@H]1CNCCCN1S(=O)(=O)c1cccc2c(O)nccc12 [Compound R-YK1601, (R)-5-((2-methyl-1,4-diazacycloheptan-1-yl)sulfonyl)isoquinolin-1-ol]	253.46 ± 19.86	266.61 ± 20.77	243.07 ± 17.37	11.75 ± 2.05	253.00 ± 5.55	253.52 ± 55.60	227.01 ± 16.23	0.806 ± 0.057	0.896 ± 0.147	1.131 ± 0.134	2526.66 ± 220.56	2339.70 ± 249.84	2598.44 ± 365.33	slight promotion effect
COc1nccc2c(S(=O)(=O)N3CCCNC[C@H]3C)cccc12 [Compound R-YK1602, (R)-1-methoxy-5-((2-methyl-1,4-diazacycloheptan-1-yl)sulfonyl)isoquinoline]	263.55 ± 0.12	285.24 ± 13.22	238.19 ± 19.65	11.95 ± 2.04	248.71 ± 19.98	263.34 ± 15.04	241.51 ± 16.58	0.878 ± 0.006	0.914 ± 0.032	1.005 ± 0.006	2607.85 ± 384.81	2314.00 ± 393.66	2262.45 ± 134.54	–
